Key:
[1] = system: B. subtilis 168; assay: fitness (endpoint OD595 vs no drug) (fraction); higher = more growth
In short: (§1)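 At 37 °C, bacteria in TSB, LB Lennox or CY were grown in 384-well plates from a starting OD595 of 0.01. OD595 was measured every 30 min for 14 h, with the first reading used as background. Fitness is the optical density at the switch to stationary phase as a fraction of the robust mean of no-drug control wells, capped at 1.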

[2] = system: S. pneumoniae D39V; assay: as above
In short: as §1

[3] = system: S. aureus Newman; assay: Bliss interaction score (quartile over a dose matrix) (fitness difference); higher = more antagonism (negative = synergy)
In short: (§2)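 OD595 was read at entry into stationary phase and expressed relative to the robust mean of the no-drug wells on the same plate, capped at 1. The resulting ratio is the fitness value. The Bliss score, observed fitness minus product-based expected fitness with single-drug fitness inferred from combinations, is summarised by quartiles over technical, biological and donor/recipient replicates.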

[4] = system: B. subtilis 168; assay: as above
In short: as §2

[5] = system: S. pneumoniae D39V; assay: as above
In short: as §2

[6] = system: S. aureus DSM 20231; assay: as above
In short: as §2
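For Bliss interaction score (quartile over a dose matrix) in this document: first quartile when negative (synergy) and third quartile when positive (antagonism).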

C[C@H]1COc2c(N3CCN(C)CC3)c(F)cc3c(=O)c(C(=O)O)cn1c23 [Levofloxacin] + CN(C)C(=O)C(CCN1CCC(O)(c2ccc(Cl)cc2)CC1)(c1ccccc1)c1ccccc1 [Loperamide]
fitness, one replicate
Details | first compound 0.001 µg/mL | first compound 0.002 µg/mL | first compound 0.0039 µg/mL | first compound 0.2 µg/mL | first compound 0.4 µg/mL | first compound 0.8 µg/mL
[1], partner 25 µg/mL | 0.807 | 0.714 | 0.714 | – | – | –
[1], partner 50 µg/mL | 0.618 | 0.172 | 0.206 | – | – | –
[1], partner 100 µg/mL | 0.613 | 0.51 | 0.581 | – | – | –
[2], partner 68.57 µg/mL | – | – | – | 0.913 | 0.896 | 0.864

Details | fitness
[1], first compound 0.0312 µg/mL, partner 25 µg/mL | 0.0337
[1], first compound 0.0312 µg/mL, partner 50 µg/mL | 0.0298
[1], first compound 0.0312 µg/mL, partner 100 µg/mL | 0.0296
[1], first compound 0.0625 µg/mL, partner 25 µg/mL | 0.0122
[1], first compound 0.0625 µg/mL, partner 50 µg/mL | 0.0229
[1], first compound 0.0625 µg/mL, partner 100 µg/mL | 0.0349
[1], first compound 0.125 µg/mL, partner 25 µg/mL | 0.0335
[1], first compound 0.125 µg/mL, partner 50 µg/mL | 0.0386
[1], first compound 0.125 µg/mL, partner 100 µg/mL | 0.0401
[2], first compound 0.1725 µg/mL, partner 20 µg/mL | ≥ 1
[2], first compound 0.1725 µg/mL, partner 40 µg/mL | ≥ 1
[2], first compound 0.2 µg/mL, partner 17.14 µg/mL | 0.877
[2], first compound 0.2 µg/mL, partner 34.28 µg/mL | 0.9
[2], first compound 0.345 µg/mL, partner 20 µg/mL | 0.998
[2], first compound 0.345 µg/mL, partner 40 µg/mL | ≥ 1
[2], first compound 0.4 µg/mL, partner 17.14 µg/mL | 0.901
[2], first compound 0.4 µg/mL, partner 34.28 µg/mL | 0.883
[2], first compound 0.69 µg/mL, partner 20 µg/mL | 0.787
[2], first compound 0.69 µg/mL, partner 40 µg/mL | 0.837
[2], first compound 0.8 µg/mL, partner 34.28 µg/mL | 0.642

Details | Bliss interaction score
[3] | 0.0501
[4] | 0.155
[5] | 0.189
[6] | 0.0444

C[C@H]1COc2c(N3CCN(C)CC3)c(F)cc3c(=O)c(C(=O)O)cn1c23 [Levofloxacin] + CN(C)c1cc(NC(=O)CNC(C)(C)C)c(O)c2c1C[C@H]1C[C@H]3[C@H](N(C)C)C(O)=C(C(N)=O)C(=O)[C@@]3(O)C(O)=C1C2=O [Tigecycline]
fitness, [1], one replicate
Details | partner 0.039 µg/mL | partner 0.078 µg/mL | partner 0.125 µg/mL | partner 0.156 µg/mL | partner 0.25 µg/mL | partner 0.5 µg/mL
first compound 0.001 µg/mL | 0.897 | 0.893 | – | 0.926 | – | –
first compound 0.002 µg/mL | 0.932 | 0.911 | ≥ 1 | 0.878 | 0.862 | 0.993
first compound 0.0039 µg/mL | 0.847 | 0.855 | 0.985 | 0.971 | 0.955 | 0.887
first compound 0.0078 µg/mL | – | – | 0.94 | – | 0.94 | 0.885

fitness
Details | first compound 0.0312 µg/mL | first compound 0.0625 µg/mL | first compound 0.125 µg/mL | first compound 0.1725 µg/mL | first compound 0.2 µg/mL | first compound 0.345 µg/mL | first compound 0.4 µg/mL | first compound 0.69 µg/mL | first compound 0.8 µg/mL
[1], partner 0.039 µg/mL | 0.0258 | 0.0305 | 0.0314 | – | – | – | – | – | –
[1], partner 0.078 µg/mL | 0.0327 | 0.0457 | 0.0438 | – | – | – | – | – | –
[1], partner 0.156 µg/mL | 0.0426 | 0.0476 | 0.0441 | – | – | – | – | – | –
[2], partner 0.65 µg/mL | – | – | – | 0.96 | 0.853 | 0.88 | 0.712 | 0.456 | 0.301
[2], partner 1.3 µg/mL | – | – | – | 0.949 | 0.842 | 0.85 | 0.713 | 0.537 | 0.35
[2], partner 2.6 µg/mL | – | – | – | 0.926 | 0.81 | 0.835 | 0.705 | 0.544 | 0.321

Details | Bliss interaction score
[3] | -0.045
[4] | -0.0381
[5] | -0.132
[6] | -0.101

CN(C)C(=O)C(CCN1CCC(O)(c2ccc(Cl)cc2)CC1)(c1ccccc1)c1ccccc1 [Loperamide] + CO[C@@H]1[C@@H](OC(N)=O)[C@@H](O)[C@H](Oc2ccc3c(O)c(NC(=O)c4ccc(O)c(CC=C(C)C)c4)c(=O)oc3c2C)OC1(C)C [Novobiocin]
[1], first compound 25 µg/mL
Details | fitness
partner 0.0125 µg/mL | 0.889
partner 0.025 µg/mL | 0.85
partner 0.05 µg/mL | 0.86

fitness, [1], one replicate
Details | first compound 25 µg/mL | first compound 50 µg/mL | first compound 100 µg/mL
partner 0.125 µg/mL | 0.703 | 0.028 | 0.0375
partner 0.25 µg/mL | 0.274 | 0.0063 | 0.0267
partner 0.5 µg/mL | 0.186 | 0.0466 | 0.0548

Details | Bliss interaction score
[3] | -0.0759
[4] | 0.205
[5] | -0.113
[6] | -0.0535

CN(C)C(=O)C(CCN1CCC(O)(c2ccc(Cl)cc2)CC1)(c1ccccc1)c1ccccc1 [Loperamide] + COc1cc(Cc2cnc(N)nc2N)cc(OC)c1OC [Trimethoprim]
fitness, [1], one replicate
Details | partner 0.1 µg/mL | partner 0.125 µg/mL | partner 0.2 µg/mL | partner 0.4 µg/mL | partner 1 µg/mL | partner 2 µg/mL
first compound 25 µg/mL | 0.0203 | 0.525 | 0.0477 | 0.0288 | 0.0225 | 0.0222
first compound 50 µg/mL | 0.0097 | 0.0833 | 0.0381 | 0.0129 | 0.0319 | 0.0248
first compound 100 µg/mL | 0.0141 | 0.107 | 0.0463 | 0.0259 | 0.031 | 0.0361

fitness, [1]
Details | first compound 50 µg/mL | first compound 100 µg/mL
partner 0.25 µg/mL | 0.201 | 0.0658
partner 0.5 µg/mL | 0.0275 | 0.0239

Details | Bliss interaction score
[3] | 0.0605
[4] | -0.102
[5] | 0.274
[6] | -0.0416
